According to patent US5164400A, “Pyrroloquinoline compounds” (Fujisawa Pharmaceutical Co., Ltd., priority 1989, dated 1992):

Legend:
[1] = target: T1, rat liver 3-Hydroxy-3-methylglutary-Coenzyme A Reductase (Rattus norvegicus, UniProt P51639); experiment: Assay for rat liver 3-Hydroxy-3-methylglutary-Coenzyme A Reductase Activity (in vitro); assay type: biochemical; conditions: enzyme solubilized from rat liver microsomes, pH 7.4, 37° C., 20 minutes
T1 construct: from tissue; host or cells: rat liver microsomes (solubilized, purified through second ammonium sulfate precipitation)
T1 sequence (P51639 1-887): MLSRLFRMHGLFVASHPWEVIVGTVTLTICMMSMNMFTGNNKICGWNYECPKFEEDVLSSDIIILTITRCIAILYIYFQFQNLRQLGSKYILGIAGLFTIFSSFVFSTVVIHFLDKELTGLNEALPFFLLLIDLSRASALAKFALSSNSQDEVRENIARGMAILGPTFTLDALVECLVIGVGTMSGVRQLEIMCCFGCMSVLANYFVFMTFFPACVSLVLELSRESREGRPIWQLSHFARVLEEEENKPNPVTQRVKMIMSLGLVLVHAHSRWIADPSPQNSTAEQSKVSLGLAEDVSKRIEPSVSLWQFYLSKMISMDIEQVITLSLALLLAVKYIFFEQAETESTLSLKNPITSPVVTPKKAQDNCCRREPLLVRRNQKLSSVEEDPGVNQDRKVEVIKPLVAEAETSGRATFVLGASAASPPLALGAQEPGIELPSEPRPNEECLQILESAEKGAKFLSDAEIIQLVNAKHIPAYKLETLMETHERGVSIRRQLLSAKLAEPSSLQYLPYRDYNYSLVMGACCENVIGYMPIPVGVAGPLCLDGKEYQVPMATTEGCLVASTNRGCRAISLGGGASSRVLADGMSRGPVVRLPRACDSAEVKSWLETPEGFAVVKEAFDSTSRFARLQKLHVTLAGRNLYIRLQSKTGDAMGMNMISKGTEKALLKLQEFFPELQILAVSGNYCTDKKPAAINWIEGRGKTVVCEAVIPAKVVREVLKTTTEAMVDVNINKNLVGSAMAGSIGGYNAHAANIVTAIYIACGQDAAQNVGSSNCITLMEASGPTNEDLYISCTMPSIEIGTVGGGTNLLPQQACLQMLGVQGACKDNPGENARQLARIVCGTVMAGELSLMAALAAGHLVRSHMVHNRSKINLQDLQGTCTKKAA
Procedure: (1) Test 1 [Assay for rat liver 3-Hydroxy-3-methylglutary-Coenzyme A Reductase Activity (in vitro)]
Five μl or an enzyme solution, solubilized from rat liver microsomes and purified through the second ammonium sulfate precipitation step, is added to 35 μl of a reaction mixture containing 1.11 kBg(=0.03 μCi) or 3-hydroxy-3-metyhl [3-^14 C] glutary coenzyme A, 100 mM potassium phosphate buffer, pH 7.4, 10 mM ethylenediaminetetraacetic acid (EDTA), 10 mM dithiothreitol with or without the graded concentrations of the test compound. The reaction is started by addition of 10 μl of 25 mM β-nicotinamide adenine dinucleotide phosphate, reduced form (NADPH). The mixture is incubated at 37° C. for 20 minutes. The reaction is terminated by addition of 10 μl of 2N hydrochloric acid. After an additional incubation for 15 minutes at 37° C., a 20 μl aliquot of the mixture is applied to a Silica Gel 60 F-254 plate (made by Merck & Co., Inc.). The chromatograms are developed in benzene/acetone (1:1). Sections of the thin layer plates where the mevalonolactone is located are scraped and the radioactivity are counted.

Sterol Synthesis = experiment: Assay for Sterol Synthesis in Rats (in vivo); design: species or system Male SD rats; conditions: dose 10.0 mg/kg, oral intubation, [1-^14 C] acetate i.p. 1 hour after compound, blood after 50 minutes
Procedure: (2) Test 2 [Assay for Sterol Synthesis in Rats (in vivo)]
Male SD rats are administered the test compound by oral intubation. One hour after compound administration, the rats are injected intraperitoneally with sodium [1-^14 C] acetate at 3.7 MBq/kg (=100 μCi/kg). After 50 minutes, 2.5 ml of blood samples are taken by cardiac puncture under short-term ether anesthesia. The plasma, obtained by centrifugation, is hydrolyzed and nonsaponifiable lipids are extracted with the petroleum ether. Sterols are isolated from these extracts as digitonide, dissolved in 1ml of methanol and the radioactivity is counted.

IC50 [1] | SMILES | Inhibition (%) (Sterol Synthesis)
25.7 nM | COc1cc(F)ccc1-c1c(/C=C/C(O)CC(O)CC(=O)O)n2c3c(cccc13)CCC2(C)C (single isomer, unassigned) [Compound B, sodium (+)-erythro-(E)-7-[5,6-dihydro-4,4-dimethyl-1-(4-fluoro-2-methoxyphenyl)-4H-pyrrolo[3,2,1-ij]quinolin-2-yl]-3,5-dihydroxyhept-6-enoate] | –
53.5 nM | COc1cc(F)ccc1-c1c(/C=C/[C@@H](O)C[C@@H](O)CC(=O)O)n2c3c(cccc13)CCC2(C)C (relative stereo) [Compound A] | 95.7%
